# Measured values published in patent US20130210054A1, “Amino Acid Copolymer Assay” (Momenta Pharmaceuticals, Inc., priority 2012, published 2013).
# How the values were obtained:
# Format in all cases: cell-based, Balb/c mice
# [1] = system: GA-specific polarized Th2 cells; assay: GA-Th2 assay: IL-4 in culture media by ELISA; conditions: 0 to 50 μg/ml antigen, 24 hours, sandwich ELISA
# Experimental: Populations of Th2 cells and APC cells were reanimated in culture media (RPMI/5% FBS/20 ng/mL IL-2), added dropwise. Cells were pelleted at 400-800G before being resuspended in fresh culture media for use in the assay. […] The final volume for the assay was 0.2 mL. The set up for the Th2 assay is illustrated in FIG. 7.
# Conditioned culture media was collected 24 hours post stimulation for analysis by multiplex assay and ELISA.
# The response curve was fit to the four parameter logistic fit equation using nonlinear regression and the EC50 (μg/ml) was calculated. One-way ANOVA followed by Tukey's multiple comparison test (significance level, p<0.05) was used for statistical testing of the dataset for each plate.
# IL-4 levels were determined by sandwich ELISA.
# [2] = system: GA-specific polarized Th2 cells; assay: Th2 assay: cytokine secretion by GA-specific polarized Th2 cells with APCs and antigen, 9-plex MSD multiplex
# Experimental: Populations of Th2 cells and APC cells were reanimated in culture media (RPMI/5% FBS/20 ng/mL IL-2), added dropwise. Cells were pelleted at 400-800G before being resuspended in fresh culture media for use in the assay. For the assay, 150,000 APC cells were combined with a concentration of GA using serial dilution of the GA. The resulting concentration curve provided a range from 0-50 μg/mL GA. APC cells were incubated with the GA for about 10 minutes before the Th2 cells were added. The final volume for the assay was 0.2 mL. The set up for the Th2 assay is illustrated in FIG. 7.
# More specifically, GA-specific polarized Th2 cells prepared according to Example 1 were cultured in vitro with varying concentrations of GA (reference standard commercial preparation, Copaxone® or glatiramoid (Sigma-Aldrich (COP-1)) in the presence of syngeneic, mitomycin-C-treated, naïve splenic APCs. Cells were cultured in 96-well plates in a final volume of 200 μl per well, with 50 μl of […] splenic APCs (150×10^3/50 μl) freshly isolated from naïve Balb/c mice, 50 μl of GA-specific polarized Th2 cells (50×10^3/50 μl) and 100 μl of culture media (complete RPMI-10 supplemented with 10% FBS) containing RLD or COP-1 at increasing concentrations of GA from 0 to 50 μg/ml. Conditioned culture media was collected 24 hours post stimulation for analysis by multiplex assay and ELISA. Th1 ([…], IL-2, IL-12p70, TNF-α, KC and IFN-γ) and Th2 (IL-4, IL-5, and IL-10) cytokine levels (pg/ml) were measured using the 9-plex mouse Th1/Th2 cytokine kit from Meso Scale Discovery (MSD) (Gaithersburg, Md.).
# CD4+ T cells = assay: Cytokine levels in culture media of CD4+ T cells from GA-immunized mice after restimulation with antigen and APCs (multiplex); conditions: for levels of Th2 cytokines induced: after a second round of stimulation, 20 μg antigen
# Experimental: Balb/c mice (Jackson Labs) were immunized with 250 μg/mL of GA (reference lot drug (RLD) or ovalbumin (OVA), each in saline, emulsified in complete Freund's adjuvant (CFA) on day 1. On day 11, the draining lymph nodes were harvested, single cell suspensions were made, and CD4+ T cells were enriched by negative selection immunomagnetic bead purification.
# For ex vivo challenge, CD4+ T cells (1×10^6/ml) were re-stimulated with 20 μg/mL of the same antigen used to immunize the mice (RLD, GA, or OVA) in the presence of freshly isolated or frozen naïve mitomycin C-treated splenic APCs (1×10^7/ml) for 3-4 days, at which time, the culture media was replaced with fresh culture media supplemented with 20 ng/ml of IL-2. Cells were split and reseeded at 800,000 cells/mL in media containing 4 parts fresh media (RPMI/5% FBS/20 ng/mL IL-2) and 1 part recycled media from the previous culture. This cycle of changing the media and splitting the cells was repeated for 6 cycles. Cells were frozen and stored as a cell bank.
# After cell propagation, the CD4+ T cells were restimulated once again with freshly isolated naïve mitomycin C-treated splenic APCs (1×10^7/ml) for 4 days and 20 μg of the respective antigen. Culture supernatants were collected 72 hours after the start of each restimulation for analysis.
# Th1 (IL-2 and IL-12p40), Th2 (IL-4, IL-5 IL-6, IL-10, and IL-13) and Th17 (IL-17) cytokine levels (ng/ml) were measured using multiplex technology (Endogen Searchlight, Rockford, Ill.). A one-way ANOVA followed by Newman-Keuls multiple comparison test (significance level, p<0.05) for each individual measured cytokine was used for statistical analysis.
molecule,measurement,setting,value
"MOG (35-55): encephalitogenic neuroantigen peptide, Peptides International (MEVGWYRSPFSRVVHLYRNGK; UniProt Q61885 63-83, looked up, fragment)",IL-4 in the culture media (cross-reactivity),[1],no IL-4 was detected
"Poly(Ala, Glu, Lys, Tyr) 6:2:5:1 hydrobromide [COP-1]","Th2 cytokines (IL-4, IL-5, IL-10) secreted","[2]; 0 to 50 μg/ml antigen, 24 hours",dose-dependent increase
same,levels of IL-2 and TNF-α,"[2]; 0 to 50 μg/ml, 24 hours",quantifiable and exhibited dose dependency
same,response versus RLD in secretion of the Th2 cytokines,"[2]; 0 to 50 μg/ml, 24 hours",readily distinguishable from RLD
same,"levels of secreted Th1 cytokines (IL-1β, KC, IFN-γ)","[2]; 0 to 50 μg/ml, 24 hours, not dose dependent",very low (below limits of quantitation)
same,IL-12 secretion,"[2]; 0 to 50 μg/ml, 24 hours, quantitated",not dose dependent
same,doses at which discriminated from RLD in levels of IL-2 and TNF-α secreted,[2]; 24 hours,> 30 µg/mL
same,"levels of Th2 cytokines (IL-4, IL-5, IL-10, IL-13), IL-2, IL-6 and TNF-α compared to restimulation with GA",[2]; restimulated in the presence of APCs,significantly decreased levels
"MBP (87-89): myelin basic protein peptide, Peptides International Catalog No. PMB-3973-PI (NRPHLIRLFSRDA; UniProt P04370 87-99, looked up, fragment)",IL-4 in the culture media (cross-reactivity),[1],no IL-4 was detected
"L-glutamic acid polymer with L-alanine, L-lysine and L-tyrosine, acetate (salt) [GA]",levels of Th2 cytokines induced,CD4+ T cells; supernatant 72 hours,high levels
same,"levels of Th2 cytokines (IL-5, IL-6, IL-10, IL-13) induced","CD4+ T cells; after the first round of stimulation, 20 μg/mL antigen, supernatant 72 hours",low but detectable levels
same,Th17 cytokine IL-17 and Th1 cytokine IL-12p40,CD4+ T cells; with the second round of stimulation,selectively down-regulated
"PLP (139-151): encephalitogenic neuroantigen peptide, Peptides International (CHCLGKWLGHPDK; UniProt P60202 139-151, looked up, fragment)",IL-4 in the culture media (cross-reactivity),[1],no IL-4 was detected
"ovalbumin: ovalbumin control antigen (protein, UniProt P01012 2-386, looked up) Ovalbumin: GSIGAASMEFCFDVFKELKVHHANENIFYCPIAIMSALAMVYLGAKDSTRTQINKVVRFDKLPGFGDSIEAQCGTSVNVHSSLRDILNQITKPNDVYSFSLASRLYAEERYPILPEYLQCVKELYRGGLEPINFQTAADQARELINSWVESQTNGIIRNVLQPSSVDSQTAMVLVNAIVFKGLWEKAFKDEDTQAMPFRVTEQESKPVQMMYQIGLFRVASMASEKMKILELPFASGTMSMLVLLPDEVSGLEQLESIINFEKLTEWTSSNVMEERKIKVYLPRMKMEEKYNLTSVLMAMGITDVFSSSANLSGISSAESLKISQAVHAAHAEINEAGREVVGSAEAGVDAASVSEEFRADHPFLFCIKHIATNAVLFFGRCVSP",levels of Th2 cytokines induced,CD4+ T cells; supernatant 72 hours,did not show a corresponding increase
"murine MBP: murine myelin basic protein, EMD Biosciences Catalog No. 124027 (protein, UniProt P04370 1-250, looked up) Myelin basic protein: MGNHSGKRELSAEKASKDGEIHRGEAGKKRSVGKLSQTASEDSDVFGEADAIQNNGTSAEDTAVTDSKHTADPKNNWQGAHPADPGNRPHLIRLFSRDAPGREDNTFKDRPSESDELQTIQEDPTAASGGLDVMASQKRPSQRSKYLATASTMDHARHGFLPRHRDTGILDSIGRFFSGDRGAPKRGSGKDSHTRTTHYGSLPQKSQHGRTQDENPVVHFFKNIVTPRTPPPSQGKGGRDSRSGSPMARR",IL-4 in the culture media (cross-reactivity),[1],no IL-4 was detected
